Measured values as given in patent publication US20220370434A1, “METHODS AND COMPOSITIONS FOR TREATING CANCER” (City of Hope, priority 2019, published 2022).

How the values were obtained:
[1] = system: AML patient-derived CD34+ cells; test: Cell viability of AML patient-derived CD34+ cells; format: cell-based, human; details: 100 nM formula (I), 200 nM formula (II), 48 hours
NOMO-1 cells = test: Cell apoptosis assay; format: cell-based; details: 48 hour; 50, 200, 400 nM formula (I); 100, 500, 1000 nM formula (II)
Experimental: Cell cycle and apoptosis assays: Propidium Iodide (PI) DNA staining was chosen to assess the cells located at G0/G1, S, and G2/M stages; while Hoechest 33342 and Pyronin Y was selected to evaluate cells at G0, G1, and S/G2/M phases. For PI staining, 1*10^6 cells were collected, washed once with PBS, and suspended in 1 ml buffer with 0.05 mg/ml PI, 0.1% trisodium citrate, 0.02 mg/ml ribonuclease A, 0.3% NP-40, incubated at 37° C. for 30 minutes, and then applied to flow cytometer directly. As Hochest 33342/Pyronin Y staining, the cells were collected, washed, and re-suspended in 1 ml cell culture medium, stained with 10 μg/ml Hochest 33342 at 37° C. for 45 minutes, and further stained with 0.5 μg/ml Pyronin Y for additional 15 minutes at 37° C. The samples were transferred onto ice before subjected to flow cytometry. Cell apoptosis was validated with PE Annexin V Apoptosis Detection Kit I (559763, BD Biosciences) according to the instructed protocol. Flow cytometry was performed with Fortessa X20 and the related results were analyzed with FlowJo V10 software.

[2] = Solubility and uptake after i.p. injection (dissection); format: physicochemical, mice; details: yellow/orange crystals in abdomen
Experimental: Mice from PDX mouse model were treated with compound of formula (I) via i.p. injection and later dissected.

MONOMAC 6 cells = test: Response to DNMT inhibitors after pretreatment; format: cell-based; details: pretreated 64 nM 48 hours; 100 nM DAC or 100 nM AZA
Glioma = test: Anti-tumor effects in solid tumors; format: cell-based
From the text: (§1) Besides in hematopoietic malignancy, FTO also plays oncogenic function in solid tumors, such as glioblastoma (GBM) and lung squamous cell carcinoma (LUSC). To broaden the application of the FTO inhibitors in additional cancers, expression of FTO in various types of cancers was adopted from cBioPortal for Cancer Genomics (http://www.cbioportal.org/).
(§2) Cell culture: For leukemia cells, U937 and MV4-11 were obtained from American Type Culture Collection (ATCC) and cultured in endotoxin-free RPMI1640 supplemented with 10% fetal bovine serum (FBS) (Gemini Bio-Products); K562 (ATCC) was cultured in IMDM with 10% FBS; NOMO-1, ML-2, NB4 were obtained from DSMZ and kept in RPM11640 with 10% FBS; SKNO-1 (DSMZ) was maintained in RPM11640 with 10% FBS and 10 ng/ml GM-CSF; MA9.3ITD (MLL-AF9 plus FLT3-ITD-transformed human CD34^+ cord blood) and MA9.3RAS (MLL-AF9 plus NRasG12D-transformed human CD34^+ cord blood), established by Dr. James Mulloy (30), were maintained in IMDM supplemented with 20% FBS. AML patient-derived primary cells were kept in IDMD supplemented with 20% FBS, 10 ng/ml human cytokines SCF, TPO, FLT3 ligand, IL-3, and IL-6. The glioblastoma cell lines, including 8MGBA, A172 and U87MG were originally maintained by Dr. David Plas from University of Cincinnati, and cultured in RPMI1640 with 10% FBS. Breast tumor cell lines, including ZR-75-1 and MDA-MB-231, were purchased from ATCC, and cultivated in RPMI1640 with 10% FBS. The cell lines from lung cancer, H1993, H2009, and H1437, and pancreatic cancer cells Capan-1 and miAPACA2 were kindly provided by Dr. Ravi Salgia from City of hope, and maintained in RPMI1640 with 10% FBS. All the cells are not among commonly misidentified cells lines, and were tested for Mycoplasma contamination yearly using a PCR Mycoplasma Detection Kit (Applied Biological Materials Inc.). In order to prevent potential contamination, all the mediums were supplemented with Penicillin-Streptomycin (15140122, Life Technologies) and Plasmocin prophylactic (Applied Biological Materials Inc.) according to the manufacture's instruction.

breast tumors = test: Anti-tumor effects in solid tumors; format: cell-based
From the text: as §1, §2

pancreatic cancer = test: Anti-tumor effects in solid tumors; format: cell-based
From the text: as §1, §2

AML cells = test: Sensitization of AML cells to other therapeutic agents; details: for effect with TKI in inhibiting viability: human AML cells
[3] = system: primary AML cells from a relapsed AML patient; test: AML PDX mouse model; details: i.p.
Experimental: (§3) The experiment was repeated with secondary BMT with MA9 leukemic cells. […] 1×10^6 mononuclear cells (MNCs) were isolated from bone marrow of the AML patients and transplanted into NRGS recipient mice. Drug treatment (5 mg/kg/day, every other day treatment, 10 times in total) was started from day 8 after transplantation.
As PDX mouse models, 1×10^6 AML patient derived cells were transplanted into NRGS recipient mice intravenously, and drug treatment was started from 7 days later.

MA9.3ITD AML cells = test: Xenograft AML mouse model with MA9.3ITD cells; details: cells pretreated 100 nM 48 hours; 2 mg/kg/day every other day i.p., ten treatments
Experimental: For xenograft AML models with NRGS mice, the leukemia AML cells, with high endogenous FTO expression, were pretreated with 100 nM FTO inhibitors for 48 hours before transplantation, and drug treatment was started at day 11 after transplantation.
Xenograft AML mouse models and AML PDX mouse models: NRG-SGM3 mice were used for both ‘human-in-mouse’ xeno-transplanation models and PDX models. […] For xenograft mouse, 0.1×10^6 MA9.3ITD cells were transplanted into NRGS recipient mice intravenously. Drug treatment was started from 10 days after transplanatation.

[4] = system: PD-L1 and PD-L2 in AML cells (MONOMAC 6); test: Expression of PD-L1 and PD-L2 upon DNMT inhibitor treatment; details: for expression of PD-L1/2: in AML
Experimental: Expression of PD-L1, PD-L2, and m^6A abundance upon DNMT inhibitor treatment in AML cells was analyzed. MONOMAC 6 cells were treated with PBS, 1 μM, 3 μM, and 5 μM DAC for 48 hours.

NB4 cells = test: Combination with DNMT inhibitors, cell growth; format: cell-based; details: 48 hours, 256 nM formula (IIa)
Experimental: Cell proliferation was measured. […] This experiment was repeated with NB4 cells. […] Synergistic inhibitory effect of FTO inhibitor together with DNMT inhibitor on cell proliferation was observed.
NB4 AML cells were treated with 256 nM compound of formula (IIa), 1000 nM AZA, 100 nM DAC, or their combinations for 48 hours. Effects of compound of formula (IIa), DAC, AZA and combined effects of compound of formula (IIa) with either DAC or AZA on […] AML cell growth was measured (FIG. 9D).

HONO-1 AML cells = test: Combination with DNMT inhibitors, cell growth; format: cell-based; details: 256 nM formula (IIa), 48 hours
Experimental: HONO-1 AML cells were treated with 256 nM compound of formula (IIa), 1000 nM AZA, 100 nM DAC, or their combinations for 48 hours. Effects of compound of formula (IIa), DAC, AZA and combined effects of compound of formula (IIa) with either DAC or AZA on HONO-1 AML cell growth was measured (FIG. 9C).

[5] = system: primary murine MLL-AF9 (MA9) leukemic cells; test: Colony forming assay; details: 1 μM
Experimental: MA9 murine leukemic cells were used for colony forming assay.
(§4) Serial colony-forming assay: The assay was employed as described previously with some modification (31). […] The dishes were incubated at 37° C. in a humidified atmosphere of 5% C02 in air for 7 days. Then, colony cells were collected and replated every 7 days with 20,000 cells/dish for 3 passages. Colony numbers were counted and compared for each passage.

[6] = system: murine FLT3ITD/NPM1mut leukemic cells; test: Colony forming assay; details: 10 nM or 50 nM
Experimental: as §4

Experimental for MA9 murine AML cells: as §3
The study was done following secondary BMT with murine MA9 cells, where drug treatment was initiated 7 days after BMT. […] Treatment strategy for DAC: 0.1 mg/kg/day, three times for one week, two weeks in total, i.p. injection.
The Lin^− progenitor cells were retrovirally transduced with MSCV-Neo-MA9 construct through two rounds of ‘spinoculation’ as described previously (31). […] For secondary BMT assays, primary leukemic mouse bone marrow cells (CD45.2+) were collected and sorted by flow cytometry when the mice developed full-blown AML. The cells were injected into sub-lethally irradiated (570 rads) secondary recipient mice with 0.1×10^6 donor cells per mouse via tail vein injection.

SMILES | cell viability [1] | cell apoptosis (NOMO-1 cells) | growth (Glioma) | growth (breast tumors) | growth (pancreatic cancer) | sensitization to ATRA, DNR, Ara-C, Aza and DAC (AML cells) | effect with TKI in inhibiting viability (AML cells) | expression of PD-L1/2 [4] | other results
C(=N\NC1=NCCN1)/c1c2ccccc2c(/C=N/NC2=NCCN2)c2ccccc12 [formula (I)] | significantly decreased cell viability of AML | dose-dependent increase in cell apoptosis | growth disadvantage | growth disadvantage | growth disadvantage | sensitize AML cells | synergize with TKI |  | solubility and uptake [2]: extreme low solubility and uptake; inhibition of cell proliferation by DAC or AZA after pretreatment (MONOMAC 6 cells): increased inhibition in cell proliferation
Cc1c(-c2ccc(-c3ccccc3F)cc2)nc2ccc(F)cc2c1C(=O)O [formula (II)] | significantly decreased cell viability of AML | dose-dependent increase in cell apoptosis | growth disadvantage | growth disadvantage | growth disadvantage | sensitize AML cells | synergize with TKI |  | anti-leukemia effect, survival (Kaplan-Meier) ([3]; 5 mg/kg/day every other day, 10 times, in PBS): strong anti-leukemia effect; anti-leukemia effect, engraftment of AML patient cells into bone marrow ([3]; hCD45 and hCD33 positive cells at day 26): strong anti-leukemia effect; effect with DAC on survival (Kaplan-Meier) (MA9 murine AML cells; 5 mg/kg/day FTO inhibitor, DAC 0.1 mg/kg/day i.p.): synergistic effect; anti-leukemia effects (delaying leukemogenesis, improving survival) (MA9 murine AML cells; 5 mg/kg/day every other day, ten treatments, i.p. or i.v. (micelle)): promising anti-leukemia effects
Cc1noc(C)c1-c1cc(Cl)c(Nc2ccccc2C(=O)NO)c(Cl)c1 [FB23-2, reference compound] |  |  |  |  |  |  |  |  | survival (Kaplan-Meier) (MA9.3ITD AML cells): lived significantly longer than the control groups
Nc1ncn([C@H]2C[C@H](O)[C@@H](CO)O2)c(=O)n1 [DAC, 5-aza-2′-deoxycytidine] |  |  |  |  |  |  |  | upregulation of PD-L1/2 | expression of PD-L1 and PD-L2 ([4]; MONOMAC 6, 1 μM, 3 μM, 5 μM, 48 hours): induced expression of PD-L1 and PD-L2 in a dose dependent manner
O=C(O)c1cc(-c2ccc(-c3ccccc3)cc2)nc2ccccc12 [formula (IIa)] |  |  |  |  |  |  |  |  | effect with DAC on cell growth (NB4 cells; 100 nM DAC): synergistic effects; effect with AZA on cell growth (NB4 cells; 1000 nM AZA): synergistic effects; effect with DAC on cell growth (HONO-1 AML cells; 100 nM DAC): synergistic effects; effect with AZA on cell growth (HONO-1 AML cells; 1000 nM AZA): synergistic effects; colony forming activity [5]: decreased colony forming activity; inhibitory effect on colony forming activity compared with formula (II) [5]: slightly stronger inhibitory effect; inhibitory effect on colony forming activity compared with formula (II) [6]: slightly stronger inhibitory effect; colony forming activity ([6]; b415): dose dependent decreased colony forming activity
Nc1ncn([C@@H]2O[C@H](CO)[C@@H](O)[C@H]2O)c(=O)n1 [AZA, 5-azacytidine] |  |  |  |  |  |  |  | upregulation of PD-L1/2 | 
